What all share (experiment): Cell viability assay (Hoechst 33342/PI, ImageXpress)
Holding throughout (assay type): cell-based

For one assay, the system named is B16-F10 cell line. The following applies: Mus musculus. On the procedure:
(§1) The purity of each oxysterol was determined to be 98% by GS/MS. For all experiments, a stock solution was prepared at a concentration of 1000 μM in absolute ethanol. The concentrations used in the experiments were in the range of those described to induce cell death on several cell lines. For the experiments, cells were plated at a density of 1.5×10^3 cells/[…] in triplicate in 96-well Black Flat Bottom Polystyrene Microplates (Corning, Mass.) and incubated in CO2 atmosphere. […] At the end of this experimental period, several parameters were determined in each of the three samples, as described hereafter.
(§2) After 24 h cells were incubated with Hoechst 33342 (0.1 μg/mL) and 0.5 μl propidium iodide (PI) for 15 min. ImageXpress Micro high content screening system (Molecular Devices, Sunnyvale, Calif.) was used to determine the number of live and death cells. Nine sites per well and three wells per treatment were acquired. Cell Scoring MetaXpress software was used to analyze the number of cells and the viability. For IC50 calculations, survival data were evaluated by variable slope curve-fitting with GraphPad Prism.

The next assay relates to MDA-MB-321 cell line. On the procedure: as §1, §2
A further assay relates to LL 24. As to conditions: LL24, Table 4, time and unit inferred. On the procedure:
(§3) The purity of each oxysterol was determined to be 98% by GS/MS. For all experiments, a stock solution was prepared at a concentration of 1000 μM in absolute ethanol. The concentrations used in the experiments were in the range of those described to induce cell death on several cell lines. For the experiments, cells were plated at a density of 1.5×10^3 cells/[…] in triplicate in 96-well Black Flat Bottom Polystyrene Microplates (Corning, Mass.) and incubated in CO2 atmosphere. Several concentrations of each oxysterol (0 to 100 μM, 200 μL final volume) were added to the media, followed by incubation for 24 h. At the end of this experimental period, several parameters were determined in each of the three samples, as described hereafter. After 24 h cells were incubated with Hoechst 33342 (0.1 μg/mL) and 0.5 μl propidium iodide (PI) for 15 min. ImageXpress Micro high content screening system (Molecular Devices, Sunnyvale, Calif.) was used to determine the number of live and death cells. Nine sites per well and three wells per treatment were acquired. Cell Scoring MetaXpress software was used to analyze the number of cells and the viability. For IC50 calculations, survival data were evaluated by variable slope curve-fitting with GraphPad Prism.

The subject of another assay is A172. The following applies: A 172; A172, human brain glioblastoma; Table 2. How it is done:
(§4) The purity of each oxysterol was determined to be 98% by GS/MS. For all experiments, a stock solution was prepared at a concentration of 1000 μM in absolute ethanol. The concentrations used in the experiments were in the range of those described to induce cell death on several cell lines. For the experiments, cells were plated at a density of 1.5×10^3 cells/[…] in triplicate in 96-well Black Flat Bottom Polystyrene Microplates (Corning, Mass.) and incubated in CO2 atmosphere. Several concentrations of each oxysterol (0 to 100 μM, 200 μL final volume) were added to the media, followed by incubation for 24 h. At the end of this experimental period, several parameters were determined in each of the three samples, as described hereafter.
as §2

The test system of the next assay is HeLa. As to conditions: human cervix adenocarcinoma, Table 2. On the procedure:
as §4, §2

The subject of a further assay is HepG-2. As to conditions: HepG2; HepG-2, human hepatocellular carcinoma; Table 2. On the procedure:
as §4, §2

Another assay has as its system Jurkat. As to conditions: human acute T cell leukemia, Table 2. On the procedure:
as §4, §2

In the next assay the test system is MRC-5. As to conditions: MRC5; MRC-5, human lung normal; Table 2. On the procedure: as §4, §2
The next assay has as its system Molt-4. As to conditions: Molt-4, human acute lymphoblastic leukemia; Table 2. On the procedure:
as §4, §2

The subject of a further assay is PC-3. The following applies: PC-3, human prostate grade IV adenocarcinoma; Table 2. How it is done: as §4, §2
For a further assay, the system named is Raji. The following applies: human Burkitt's lymphoblast, Table 2. On the procedure: as §4, §2
The next assay concerns T98G. As to conditions: human brain glioblastoma, Table 2. On the procedure:
as §4, §2

The test system of another assay is U87-MG. As to conditions: U-87 MG, human glioblastoma astrocytoma, Table 2. How it is done:
as §4, §2

The subject of the next assay is HUV-EC. As to conditions: Homo sapiens, HUVEC, Table 4, time and unit inferred. How it is done: as §3
[1] abbreviates: B16-F10, 48 h, Table 3, read-out: B16-F10 cell line IC50 (uM) 48 h.
Where [2] appears, read: B16-F10, 72 h, Table 3, read-out: B16-F10 cell line IC50 (uM) 72 h.
The mark [3] stands for this setting: B16 F10, Table 4, time and unit inferred, read-out: IC50 B16 F10.
Setting [4] is: MDA-MB-321, 48 h, Table 3, read-out: MDA-MB-321 cell line IC50 (uM) 48 h.
The mark [5] stands for this setting: MDA-MB-321, 72 h, Table 3, read-out: MDA-MB-321 cell line IC50 (uM) 72 h.
Setting [6] is: B16-F10, 24 h, Table 3, read-out: B16-F10 cell line IC50 (uM) 24 h.
Where [7] appears, read: MDA-MB-321, 24 h, Table 3, read-out: MDA-MB-321 cell line IC50 (uM) 24 h.
[8] abbreviates: MDA-MB-321, Table 4, time and unit inferred, read-out: IC50 MDA-MB-321.

The values below come from patent US11332494B2, “Nanoemulsions and methods for cancer therapy” (Fernando Thome Kreutz, priority 2016, dated 2022).

SMILES strings stand for the structures. Where two headings read alike, the source gives them in different places.

One may read the IC50 as the point on the concentration scale where inhibition reaches its midpoint. Consider `CC(C)CCC[C@H](C)C1CCC2C3C(=O)C=C4C=CCC[C@]4(C)C3CC[C@@]21C` (stereo partly shown) [Ox-3, 3,5-cholestan-7-one], for which the concentration for half-maximal inhibition (IC50) in the assay on B16-F10 cell line (setting [1]) is 377 µM; in the assay on B16-F10 cell line (setting [2]), 52.9 µM; with B16-F10 cell line (setting [3]), 118 µM.

Take `CC(=O)O[C@H]1CC[C@@]2(C)C(=CC(=O)[C@H]3[C@@H]4CC[C@H]([C@H](C)CCCC(C)C)[C@@]4(C)CC[C@@H]32)C1` [Ox-6, 7-oxocholest-5-en-3-β-yl acetate]: the IC50 with MDA-MB-321 cell line (setting [4]) was determined as 8560 µM; with MDA-MB-321 cell line (setting [5]), 829 µM.

As for `CC(C)CCCC(C)C1CCC2C3CC(O)C4CC(O)CC[C@]4(C)C3CC[C@]12C` (stereo in doubt) [Ox-4, (3α,5β,6α)-cholestane-3,6-diol], the concentration for half-maximal inhibition (IC50) turned out to be 58.3 µM with B16-F10 cell line (setting [6]); 52.9 µM with B16-F10 cell line (setting [1]); 82.6 µM in the assay with B16-F10 cell line (setting [2]); 42.4 µM with B16-F10 cell line (setting [3]); 66.6 µM with MDA-MB-321 cell line (setting [7]); 39.7 µM in the assay on MDA-MB-321 cell line (setting [4]). Further, the 50% inhibitory concentration (IC50) with MDA-MB-321 cell line (setting [5]) worked out at 35.3 µM; with MDA-MB-321 cell line (setting [8]) it was 59 µM; in the assay with LL 24, 28.3 µM.

With `CC(C)CCCC(C)C1CCC2C3CC(O)C4(O)CC(O)CC[C@]4(C)C3CC[C@]12C` (stereo in doubt) [Ox-2, Cholestane-3α-5β-6α-triol], the half-inhibitory concentration (IC50) in the assay on A172 was 23.6 µM; in the assay with HeLa, 19.9 µM; with HepG-2, 19 µM; in the assay with Jurkat it was 46.6 µM; in the assay with MRC-5 it was 47.5 µM; with Molt-4, 12.3 µM. Moreover, the concentration for half-maximal inhibition (IC50) in the assay on PC-3 was determined as 21 µM; with Raji, 39 µM; with T98G it was 27.5 µM; in the assay on U87-MG, 29.8 µM; in the assay with B16-F10 cell line (setting [6]), 18.1 µM; in the assay with B16-F10 cell line (setting [1]) it was 21.4 µM. In addition, the half-maximal inhibitory concentration (IC50) in the assay with B16-F10 cell line (setting [2]) worked out at 15.4 µM; in the assay on B16-F10 cell line (setting [3]), 41.3 µM; in the assay with MDA-MB-321 cell line (setting [7]), 7.9 µM; with MDA-MB-321 cell line (setting [4]), 21.1 µM; in the assay with MDA-MB-321 cell line (setting [5]), 25.2 µM; in the assay with MDA-MB-321 cell line (setting [8]) it was 37.5 µM. Besides, the half-maximal inhibitory concentration (IC50) with HUV-EC worked out at 73.6 µM; in the assay with LL 24 it was 38.4 µM.

Consider `CC(=O)O[C@H]1CC[C@@]2(C)C(=CC[C@H]3[C@@H]4CC[C@H]([C@H](C)CCCC(C)C)[C@@]4(C)CC[C@@H]32)C1` [Ox-5, Cholesteryl acetate], for which, in the assay with MDA-MB-321 cell line (setting [5]), the half-inhibitory concentration (IC50) turned out to be 89.8 µM.

Consider `CC(C)CCC[C@@H](C)[C@H]1CC[C@H]2[C@@H]3C(=O)C=C4C[C@@H](O)CC[C@]4(C)[C@H]3CC[C@]12C` [Ox-1, 7-Ketocholesterol], for which the IC50 came to 15.6 µM in the assay with A172; 33.2 µM in the assay on HeLa; 42.5 µM in the assay on HepG-2; 55.8 µM in the assay on Jurkat; 78.6 µM in the assay on MRC-5; 38 µM in the assay on Molt-4. The 50% inhibitory concentration (IC50) worked out at 19.2 µM in the assay on PC-3; 63.3 µM with Raji; 55.6 µM with U87-MG; 19.9 µM with B16-F10 cell line (setting [6]); 21.7 µM in the assay with B16-F10 cell line (setting [1]); 29.6 µM with B16-F10 cell line (setting [2]). For the same compound, the IC50 in the assay on B16-F10 cell line (setting [3]) was 35.6 µM; in the assay on MDA-MB-321 cell line (setting [7]), 54.4 µM; with MDA-MB-321 cell line (setting [4]), 50.4 µM; with MDA-MB-321 cell line (setting [5]), 48.1 µM; in the assay on MDA-MB-321 cell line (setting [8]), 37.6 µM; in the assay with HUV-EC it was 39.4 µM. Moreover, it took 49.5 µM to reach half-maximal inhibition in the assay on LL 24 (IC50).

For `CC(C)CCC[C@@H](C)[C@H]1CC[C@H]2[C@@H]3C(=O)[C@@H]4O[C@@]45C[C@@H](O)CC[C@]5(C)[C@H]3CC[C@]12C` [Ox-8, (3α,5β,6α)-3-OH-5,6-epoxycholestan-7-one], the IC50 in the assay on B16-F10 cell line (setting [3]) was 37 µM; in the assay with MDA-MB-321 cell line (setting [8]), 40 µM; in the assay on HUV-EC it was 35.2 µM; in the assay on LL 24, 46.5 µM.
